Laboratory results from publication PMC11394712 (Foods, 2024).
pIC50, pKd: −log10 of the molar value. In brackets after ≈: the same amount, converted by molar mass.

How the values were obtained:
α-amylase = conditions: ref 39 (Zheng et al.); cited from earlier work
α-glucosidase = conditions: ref 39 (Zheng et al.); cited from earlier work
[1] = molecular target: T1, α-Amylase from porcine pancreas (Sus scrofa, UniProt P00690); experiment: Inhibition rate of α-amylase (glucose assay kit, 510 nm); type: biochemical
T1 construct: purchased Sigma-Aldrich (Shanghai, China); host or cells: porcine pancreas
T1 sequence (P00690 16-511): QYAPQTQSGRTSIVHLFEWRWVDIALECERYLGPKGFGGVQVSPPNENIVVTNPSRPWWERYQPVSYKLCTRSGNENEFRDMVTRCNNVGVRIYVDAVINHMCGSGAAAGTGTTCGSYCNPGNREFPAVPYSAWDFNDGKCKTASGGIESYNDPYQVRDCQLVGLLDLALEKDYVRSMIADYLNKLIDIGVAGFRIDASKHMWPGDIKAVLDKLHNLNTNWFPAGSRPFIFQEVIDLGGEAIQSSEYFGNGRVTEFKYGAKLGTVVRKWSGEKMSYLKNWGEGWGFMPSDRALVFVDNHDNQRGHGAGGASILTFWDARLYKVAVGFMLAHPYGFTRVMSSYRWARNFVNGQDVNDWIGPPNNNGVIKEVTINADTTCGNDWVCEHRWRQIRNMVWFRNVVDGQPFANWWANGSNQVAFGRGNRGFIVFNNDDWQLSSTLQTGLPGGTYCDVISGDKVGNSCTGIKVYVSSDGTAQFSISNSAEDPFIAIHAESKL
Experimental: For α-amylase, the method of Qin et al. [22] was used with slight modifications (the enzymatic reaction time was different). […] A 5 mL aliquot of the above solution was taken to undergo 10 min of incubation at 37 °C, following by the addition of 5 mL of starch solution (20 mg/mL) that was prepared and kept at 37 °C. Following 15 min of incubation at 37 °C, the reaction solution was removed, and a glucose assay kit was employed for assaying the glucose produced after starch hydrolysis through measuring the changes in the absorbance at 510 nm. […] IC50 was calculated using SPSS 25.0 (IBM) nonlinear regression fitting. (4) Inhibition ratio (%) = 1−ODsample−ODsample blank/ODenzyme solution−ODbuffer solution×100 where ODsample, ODsample blank, and ODenzyme solution represent the absorbance of the solution containing both the sample and the enzyme, the sample solution, and the enzyme solution, respectively. ODbuffer solution is the absorbance of the buffer solution.

[2] = molecular target: T1, α-Amylase from porcine pancreas; experiment: Reversibility and enzyme inhibition kinetics, α-amylase (Lineweaver–Burk); type: biochemical
Experimental: The protocol of Dong et al. was followed with minor modifications (the substrate concentration was different). […] The assay mixture received 10 min of incubation at 37 °C. The mixture underwent 15 min of incubation after being added with starch solution (5 mL, 20 mg/mL), followed by the determination of the absorbance change. […] The mixture of the above solution with 2 mL of pNPG solution (25.0 mmol/L) underwent 15 min of incubation, followed by the measurement of its absorbance at 405 nm.
The method in the study of Jiang et al. was modified slightly in this study (the concentration of the inhibitor was different). […] Thereafter, the assay mixture added with 5 mL of 10, 20, 40, 50, and 100 mg/mL of starch solution underwent 15 min of incubation at 37 °C. The assay was performed using a glucose assay kit, together with the identification of the absorbance change at 510 nm.
The assay mix was incubated further for 15 min at 37 °C. The experimenters terminated the reaction by adding 6 mL of sodium carbonate solution (0.2 mol/L). The absorbance change of the solution was monitored colorimetrically at 405 nm. […] The equations below were adopted for calculating Km, KIC, and KIN, which, respectively, represented the Michaelis constant, competitive inhibition constant, and non-competitive inhibition constant, in mg/mL [28].
Lineweaver–Burk:(5) 1/V=Km/Vmax⋅1/[S]+1/Vmax

[3] = tested on: porcine pancreatic α-amylase and amyloglucosidase (rice starch digestion); experiment: In vitro digestion of genistein–starch mixed system (RDS, SDS, RS contents); type: biochemical, porcine; Aspergillus niger
Experimental: A particular volume of mixed enzyme solution was prepared in which the specific activities of porcine pancreatic α-amylase and amyloglucosidase were 150 U/mL and 15 U/mL, respectively, and kept at 37 °C. […] This mixed system was added to 25 mL of mixed enzyme solution to receive incubation at 37 °C and 160 r/min in a shaking water bath. Aliquots from the reaction solution were removed at 0, 20, and 120 min, followed by being assayed using a glucose assay kit (Megazyme). Below is the calculation equation of the rapidly digestible starch (RDS), slowly digestible starch (SDS), and resistant starch (RS) contents:(1) RDS(%)=(G20−G0)×0.9/TS×100 (2) SDS(%)=(G120−G20)×0.9/TS×100 (3) RS(%)=TS−RDS−SDS/TS×100
In the above equations, G0 represents the content of free glucose within starch; G20 and G120 are the quantities of glucose generated by the mixed enzyme solution after incubation for 20 and 120 min, respectively; TS represents the total starch content in the sample, mg; and 0.9 is the glucose conversion coefficient.

[4] = molecular target: T1, α-Amylase from porcine pancreas; experiment: Fluorescence quenching, binding and thermodynamic analysis, α-amylase; conditions: for pKd: KD dissociation constant; for pKd / KQ static quenching constant / n binding sites / ΔG free energy change / ΔH enthalpy change / ΔS entropy change / KA apparent quenching rate constant: α-amylase
Experimental: For fluorescence spectroscopic studies, we followed the protocol in the study of Yu et al.. […] Fluorescence quenching parameters were calculated using the following equations:(8) Fa=Fm⋅e^(Aex+Aem)/2 where Fm denotes the measured fluorescence data; Fa represents the adjusted fluorescence data; and Aex and Aem denote the absorbance at the excitation and emission wavelengths, respectively.
Stern–Volmer dynamic impact quenching equation:(9) F0/F=1+KAτ0[Q]
Binding and thermodynamic analyses were used for elucidating the mechanisms of enzyme inhibition, including the inhibition of fluorophores by quenchers. […] (13) lg(F0−F/F)=lgKC+nlg[Q] where F0, F, and [Q] are identical to those in Equation (9). KC is the binding constant (L/mol), and n denotes the average number of binding sites. (14) lnKQ2/KQ1=ΔH/R(1/T1−1/T2) (15) ΔG=−RTlnK=ΔH−TΔS

[5] = addition of genistein (0.4 mg/mL, 10%) vs starch alone
[6] = genistein 0.4 mg/mL (10.0 mg per 100 mg rice starch), 37 °C

COc1cc(/C=C/C(=O)O)ccc1O [ferulic acid]
IC50 α-amylase (α-amylase): 0.622 mg/mL (≈ 3.2 mM) | IC50 α-glucosidase (α-glucosidase): 0.866 mg/mL (≈ 4.46 mM)

O=c1c(-c2ccc(O)cc2)coc2cc(O)cc(O)c12 [genistein, Genistein]
pIC50 [1]: 2.59 | type of inhibition of α-amylase ([2]; genistein 0, 1, 2 mg/mL): reversible and non-competitive | Ki ([2]; read-out: KIN (non-competitive inhibition constant), α-amylase (converted)): 50.5 mM | increase of RS content [3, 5]: 7.18% | increase of SDS content [3, 5]: 30.34% | reduction of RDS content in starch [3, 5]: 37.52% | RDS content of the mixed system [3, 6]: 20.63% | RS content of the mixed system [3, 6]: 9.14% | SDS content of the mixed system [3, 6]: 70.23% | type of fluorescence quenching of α-amylase ([4]; 25, 31, 37 °C): static quenching | pKd ([4]; 25 °C): 3.12 | pKd ([4]; 31 °C): 3.77 | pKd ([4]; 37 °C): 3.96 | KQ static quenching constant ([4]; 25 °C): 540 L/mol | n binding sites ([4]; 25 °C): 1.19 | ΔG free energy change ([4]; 25 °C): -14.29 kJ/mol | ΔH enthalpy change ([4]; 25 °C): -0.46 kJ/mol | ΔS entropy change ([4]; 25 °C): 50.65 J·mol^−1·K^−1 | KA apparent quenching rate constant ([4]; 31 °C): 5.32e+11 L/mol/s | KQ static quenching constant ([4]; 31 °C): 530 L/mol | n binding sites ([4]; 31 °C): 0.97 | ΔG free energy change ([4]; 31 °C): -15.55 kJ/mol | ΔH enthalpy change ([4]; 31 °C): -6.02 kJ/mol | ΔS entropy change ([4]; 31 °C): 31.97 J·mol^−1·K^−1 | KA apparent quenching rate constant ([4]; 37 °C): 4.84e+11 L/mol/s | KQ static quenching constant ([4]; 37 °C): 480 L/mol | n binding sites ([4]; 37 °C): 0.77 | ΔG free energy change ([4]; 37 °C): -15.94 kJ/mol | ΔH enthalpy change ([4]; 37 °C): -2.11 kJ/mol | ΔS entropy change ([4]; 37 °C): 44.59 J·mol^−1·K^−1
